Data as given in patent US12358913B2, “Crystal of diarylthiohydantoin compound” (CHIA TAI TIANQING PHARMACEUTICAL GROUP CO., LTD., priority 2019, dated 2025).
Several values for one entry are separate records, joined by “and”; a condition that tells them apart may be missing. Equal values may be shown once.

Columns and labels:
[1] = Hygroscopicity by dynamic vapor sorption (DVS); assay type: physicochemical; conditions: 25±1° C. and 80±2% RH
Protocol: Instrument model: SMS DVS Advantage
Test conditions: a sample (10-15 mg) of the crystal of the compound of formula I prepared in Example 2 was placed in a DVS sample tray for testing.
The detailed DVS parameters were as follows:
Balancing: dm/dt=0.01%/min (shortest: 10 min, longest: 180 min)
Drying: drying at 0% RH for 120 min
RH (%) test gradient: 10%
Range of RH (%) test gradient: 0%-90%-0%
Note: ΔW % represents the moisture gain of the test compound at 25±1° C. and 80±2% RH.

[2] = Solid stability of the crystal, purity by HPLC; assay type: physicochemical
Description: References were made to the requirements in the “Guidelines for the Stability Test of APIs and Preparations” (Appendix XIX C of the Volume Two of the Chinese Pharmacopoeia, 2010 Edition) for the conditions and the method for the stability test of the crystal, and the stability of the crystalline solid under conditions of different influence factors was studied with the crystal prepared in Example 2 as a test sample.
High performance liquid chromatography (HPLC): column: Waters xbridge shiled RP18 (150 mm*4.6 mm, 3.5 μm); PN: 186003045; wavelength: 228 nm; mobile phase A: pH 4.5, 5 mmol/L sodium acetate buffer solution (pH adjusted with phosphoric acid); mobile phase B: acetonitrile; elution mode: gradient elution.

[3] = Pharmacokinetic test in male CD-1 mice, plasma by LC/MS/MS; assay type: in vivo; conditions: mouse, po, intragastric administration, 2 mg/kg
Protocol: Taking male CD-1 mice as test animals, the drug concentrations in the plasma of the mice at different time points after intravenous and intragastric administration of the compound of formula I were determined by an LC/MS/MS method. This example aims to investigate the pharmacokinetic performance of the compound of formula I in mice and to evaluate the pharmacokinetic characteristics.
2.2 Test Animals: 4 Healthy Adult Male CD-1 Mice, which were Divided into 2 Groups (2 Mice in Each Group) According to the Body Weight. Animals were Purchased from Shanghai Sippe-Bk Lab Animal Co., Ltd., and Animal Production License Number was SCXK (Shanghai) 2013-0016. 2.3 Drug Preparation
An appropriate amount of sample was weighed, and sequentially added with an appropriate amount of DMSO, PEG400 and water according to the volume ratio of 10:40:50, and the mixture was stirred and ultrasonicated to a clear state (0.4 mg/mL) for intravenous administration. […]
LC/MS/MS method was used to determine the content of the test compound in the plasma of mice after intravenous and intragastric administration. The linear range of the method was 2.00-6000 nmol/L; plasma samples were analyzed after treatment with acetonitrile to precipitate proteins.

[4] = Tissue distribution test (plasma and brain) in male CD-1 mice; assay type: in vivo; conditions: intragastric administration, 2 mg/kg, 4 h
Protocol: Taking male CD-1 mice as test animals, the drug concentrations in the plasma and brain of the mice after intragastric administration of the compound of formula I were determined by an LC/MS/MS method.
2.2 Test Animals: 2 Healthy Adult Male CD-1 Mice. Animals were Purchased from Shanghai Sippe-Bk Lab Animal Co., Ltd.
An appropriate amount of sample was added into 0.5% CMC/0.2% Tween aqueous solution, and the mixture was stirred and ultrasonicated to a suspension state (0.4 mg/mL).
Two male CD-1 mice, after fasting overnight, were subjected to intragastric administration at a volume of 5 mL/kg and a dosage of 2 mg/kg.
Male CD-1 mice, after intragastric administration of the compound of formula I, were subjected to 100 μL of blood collection by cardiac puncture at 4 h, and the blood was placed in tubes containing 2 μL of EDTA-K2 and centrifuged at 3000 g for 15 min to separate out 30 μL of plasma, which was stored at −60° C. Meanwhile, brain tissues were collected, washed, homogenized with 9-fold 15 mM PBS/MeOH (v: v, 2:1), and stored at −60° C. The animals were allowed to eat 4 h after administration.
LC/MS/MS method was used to determine the content of test compound in the plasma and brain of mice after intragastric administration. The linear range of the method was 2.00-6000 nmol/L; plasma samples were analyzed after treatment with acetonitrile to precipitate proteins.

[5] = tested on: human prostate cancer LNCaP-FGC cells; assay: In vivo pharmacodynamic study on subcutaneous xenograft tumor model of human prostate cancer LNCaP-FGC cells; set-up: species or system CB-17 SCID mouse; conditions: for Relative tumor proliferation rate T/C / TGI: after 21 days of administration
Protocol: Human prostate cancer LNCaP-FGC cells (ATCC, Manassas, VA) were cultured in vitro, in a monolayer way, in an RPMI1640 medium containing 10% fetal bovine serum at 37° C. and 5% CO2. Routine digestion treatment with pancreatin-EDTA was performed twice a week for passage. When the saturation degree of the cells is 80-90%, the cells were collected, counted and inoculated.
0.2 mL (10×10^6) of LNCaP-FGC cells (10×10^6+Matrigel, 1:1) were inoculated subcutaneously into the right back of each CB-17 SCID mouse. The mice were divided into groups for administration when the mean tumor volume reached 100-150 mm^3.
Tumor diameters were measured twice weekly using a vernier caliper. The calculation formula for tumor volume was: V=0.5a×b^2, with a and b representing the long and short diameters of the tumor, respectively. The anti-tumor therapeutic effect of the compound was evaluated by TGI (%) or relative tumor proliferation rate T/C (%). TGI (%)=[(1−(average tumor volume of a treatment group at the end of administration−average tumor volume of the treatment group at the start of administration))/(average tumor volume of a vehicle control group at the end of treatment-average tumor volume of the vehicle control group at the start of treatment)]×100%. The calculation formula for relative tumor proliferation rate T/C (%) was as follows: T/C %=TRTV/CRTV×100% (TRTV: RTV of treatment group; CRTV: RTV of negative control group). Relative tumor volume (RTV) was calculated based on the results of tumor measurement. The calculation formula was: RTV=Vt/V0, wherein V0 was the average tumor volume measured at the time of grouping and administration (i.e., d0), Vt was the average tumor volume at a certain measurement, and the data of TRTV and CRTV were obtained on the same day.
Statistical analysis included mean and standard error of mean (SEM) of tumor volume at each time point for each group. […] Comparison between two groups was analyzed using T-test, comparison among three or more groups was analyzed using one-way ANOVA. […] If there was […] in F values, Dunnet (2-sided) method was used for analysis. All data analysis was performed with SPSS 17.0. “P<0.05” was defined as a significant difference.

| SMILES | ΔW % (moisture gain) [1] | Purity of the crystal (stability) ([2]; 75% RH, 40° C., 1 month) | Purity of the crystal (stability) ([2]; 75% RH, 40° C., 2 months) | Purity of the crystal (stability) ([2]; 75% RH, 40° C., 3 months) | Purity of the crystal (stability) ([2]; 75% RH, 40° C., 10 days) | Purity of the crystal (stability) ([2]; 75% RH, 60° C., 1 day) | Purity of the crystal (stability) ([2]; 75% RH, 60° C., 10 days) | Purity of the crystal (stability) ([2]; 92.5% RH, room temperature, 10 days) | Purity of the crystal (stability) ([2]; Initial test sample) | Purity of the crystal (stability) ([2]; wrapped with tin foil paper, exposed to visible light of 1200000 Lux and UV of 200 W at room temperature) | bioavailability [3] | Brain-to-plasma concentration ratio [4] | Concentration in brain [4] | Concentration in plasma [4] | Relative tumor proliferation rate T/C ([5]; 10 mg/kg PO QD) | TGI ([5]; 10 mg/kg PO QD) | Tolerance of the animals to the test compound ([5]; 10 mg/kg and 20 mg/kg PO QD × 21 days) | Relative tumor proliferation rate T/C ([5]; 20 mg/kg PO QD) | TGI ([5]; 20 mg/kg PO QD) |
| --- | --- | --- | --- | --- | --- | --- | --- | --- | --- | --- | --- | --- | --- | --- | --- | --- | --- | --- | --- |
| CCc1cc(=O)n2cc(N3C(=S)N(c4ccc(C#N)c(Cl)c4)C(=O)C3(C)C)cc(F)c2n1 [crystal of the compound of formula I, 2-chloro-4-(3-(2-ethyl-9-fluoro-4-oxo-4H-pyrido[1,2-a]pyrimidin-7-yl)-4,4-dimethyl-5-oxo-2-thioimidazolidin-1-yl)benzonitrile] | 1.018% | 99.17% | 99.14% | 99.16% | 99.15% | 99.14% | 99.16% | 99.18% and 99.14% | 99.17% | 99.13% | – | – | – | – | – | – | – | – | – |
| CCc1cc(=O)n2cc(N3C(=S)N(c4ccc(C#N)c(Cl)c4)C(=O)C3(C)C)cc(F)c2n1 [Compound of formula I, 2-chloro-4-(3-(2-ethyl-9-fluoro-4-oxo-4H-pyrido[1,2-a]pyrimidin-7-yl)-4,4-dimethyl-5-oxo-2-thioimidazolidin-1-yl)benzonitrile] | – | – | – | – | – | – | – | – | – | – | 68.1% | 0.0322 | 265 nmol/kg | 8.26 µM | 43.93% | 62.75% | good tolerance | 32.37% | 76.16% |
